# Measured values as given in US5283246A, “Trimetazidine compounds” (Adir et Compagnie, priority 1991, dated 1994).
# Assays:
# [1] = system: cardiac cells; experiment: Oxidative necrosis of cardiac cells induced by hypoxanthine/xanthine-oxidase (XO + HX); assay type: cell-based, rat (newborn); conditions: Rattus norvegicus, 4 h; for activity at 10 µM: 10^-5 M, read-out: necrosis index of cardiac cells, XO + HX, compound 10^-5 M; for activity at 10 µM / activity at 1 µM / activity at 0.1 µM: XO + HX, control XO + HX = 100.0; for activity at 1 µM: 10^-6 M, read-out: necrosis index of cardiac cells, XO + HX, compound 10^-6 M; for activity at 0.1 µM: 10^-7 M, read-out: necrosis index of cardiac cells, XO + HX, compound 10^-7 M; for minimal effective concentration: XO + HX induced oxidative necrosis, read-out: concentration at which compounds prove to be protective against necrosis
# Description: The cardiac cells of newborn rats are used between the 5th and 6th days after placing in culture. Oxidative necrosis is induced by the free radical-producing enzymatic system hypoxanthine (HX, 1 -mm) and xanthineoxidase (XO, 10 mU/ml). The necrosis is evaluated 4 hours after the addition of XO/HX by measuring by spectrophotometry the cytosolic α-hydroxybutyrate dehydrogenase (a-HBDH) activity liberated in the supernatant. The cells are treated with the test compounds 16 hours and 1 hour before the beginning of the experiment after renewing the medium. At the beginning of the experiment, the treatment is carried out again one last time.
# Table 3 lists the necrosis indices of cardiac cells induced by the hypoxanthine/xanthine-oxidase system alone or in the presence of increasing concentrations of the compounds of the invention.
# [2] = system: rat aorta; experiment: Study on isolated vessels: vascular relaxing effect on a rat aorta contracted by potassium (80 mM); design: species or system Wistar rat; conditions: rat aorta rings without endothelium contracted by potassium (80 mM)
# Description: The thoracic aorta of Wistar rats (325-375 g) that have been anaesthetized by the intraperitoneal route with sodium pentobarbital (30 mg/kg) is removed and dissected into rings 3 mm in length; the endothelium is removed by gentle abrasion using a piece of wood. Each ring is connected to a Statham pressure sensor (UC2-Gould). The initial pressure applied is 2.5 g. The physiological solution used, maintained at 37° C., has the following composition (mM): NaCl 112; KCl 5; KH2 PO4 1; MgSO4 1.2; CaCl2 2.5; NaHCO3 25; glucose 11.; EDTA 0.026. After a stabilization period of 90 minutes, the aorta rings are subjected to a hyperpotassic medium (80 MM KCl and 37 mM NaCl). When the contraction is stable, cumulative concentrations of compound are added to the medium every 15 minutes. The relaxation values obtained enable calculation of the IC50.
# [3] = system: human LDLs; experiment: Modification of human LDLs by copper sulphate (lipid peroxidation, MDA production); assay type: biochemical; conditions: copper sulphate 5×10^-6 M, 24 hours; read-out: IC50, inhibition of copper-induced modification (MDA production) of human LDLs
# Description: Human LDLs are incubated for 24 hours in the presence of copper sulphate (5×10^-6 M) and in the absence or presence of the compounds tested (10^-7 M to 10^-4 M). After incubation, the peroxidation of the LDLs is evaluated by electrophoresis on agar gel and by the formation of one of the products of lipid peroxidation malonic dialdehyde (MDA), (Parthasarathy S., Young S. G., Witztum J. L., Pittman R. C. and Steinberg, D.; J. Clin. invest. 77; 641-644, 1986).
# The activity of the tested compounds is evaluated by calculating those concentrations (IC50) that reduce the production of MDA by 50% compared with control experiments in the absence of the tested compound.
# [4] = system: isolated hearts of rats; experiment: Hypoxia reoxygenation on the isolated heart of a rat; design: species or system Wistar rat; conditions: for functional recovery of the hearts during reoxygenation / reduction of the developing contracture at the end of 30 minutes reoxygenation: Example 1 at 3×10^-7 M, 10 at 10^-7 M, 13 at 7×10^-7 M; for functional recovery of the hearts during reoxygenation: 40% in the control experiments; for reduction of the developing contracture at the end of 30 minutes reoxygenation: vs control; for Contracture, hypoxia 10 min / Contracture, hypoxia 30 min / Contracture, hypoxia 60 min / Contracture, reoxygenation 15 min / Contracture, reoxygenation 30 min: Example 1 at 3 × 10^-7 M, Example 10 at 10^-7 M, Example 13 at 7 × 10^-7 M; for Contracture, hypoxia 10 min: control 23.7 ± 6.8; for Contracture, hypoxia 30 min: control 33.7 ± 8.9; for Contracture, hypoxia 60 min: control 32.3 ± 7.4; for Contracture, reoxygenation 15 min: control 20.6 ± 7.8; for Contracture, reoxygenation 30 min: control 12.3 ± 6.1
# Description: The hearts of male Wistar rats (325-375 g--Charles River breed) anaesthetized by the intraperitoneal route with sodium pentobarbital (30 mg/kg) are removed after the injection of heparin i.v. (1 ml/kg) and rapidly perfused by the Langendorff technique at a constant pressure of 76 mmhg and stimulated electrically at 5 Hz. The isovolumetric contractions are recorded by way of a small polyethylene balloon connected to a pressure sensor (P23-Gould) introduced into the left ventricle and inflated so as to obtain a diastolic pressure of approximately 10 mmhg. The physiological solution used, maintained at 37° C., has the following composition (mM): NaCl 118; KCl 4.7; KH2 PO4 1.2; MgCl2 1.2; CaCl2 1.3; NaHCO3 25; glucose 8, pH 7.4/95% O2 +5% CO2.
# After a period of stabilization of from 15 to 30 minutes, the heart is subjected to hypoxia for 60 minutes (effected with 95% N2 and 5% CO2; PO2 <40 mmHg), followed by reoxygenation for 30 minutes; the compound is added to the incubation medium 15 minutes before and during the period of hypoxia.
Compound,IC50 [2] [µM],IC50 [3] [µM],activity at 10 µM [1] [%],activity at 1 µM [1] [%],activity at 0.1 µM [1] [%],minimal effective concentration [1] [µM],functional recovery of the hearts during reoxygenation [4],reduction of the developing contracture at the end of 30 minutes reoxygenation [4],"Contracture, hypoxia 10 min [4] [mm Hg]","Contracture, hypoxia 30 min [4] [mm Hg]","Contracture, hypoxia 60 min [4] [mm Hg]","Contracture, reoxygenation 15 min [4] [mm Hg]","Contracture, reoxygenation 30 min [4] [mm Hg]"
"COc1ccc(CN2CCN(CCCOc3cc(C)c(O)c(C)c3C)CC2)c(OC)c1OC [Example 1, 4-(2,3,4-trimethoxybenzyl)-1-[3-(4-hydroxy-2,3,5-trimethylphenoxy)propyl]piperazine]",5,0.09,13.9 ± 5.3,55.4 ± 6.4,70.4 ± 2.5,≥ 0.1,more than 70%,more than 70%,21.0 ± 5.8,22.5 ± 2.5,21.0 ± 3.9,12.5 ± 5.1,2.5 ± 2.5
"COc1ccc(CN2CCN(CCCCCSc3cc(C(C)(C)C)c(O)c(C(C)(C)C)c3)CC2)c(OC)c1OC [Example 9, 4-(2,3,4-trimethoxybenzyl)-l-[5-(4-hydroxy-3,5-di-tert.-butylphenylthio)pentyl]piperazine]",–,0.08,33.3 ± 6.6,15.2 ± 2,53 ± 5.5,≥ 0.1,–,–,–,–,–,–,–
"COc1ccc(CN2CCN(CC(O)COc3cc(C)c(O)c(C)c3C)CC2)c(OC)c1OC (stereo not drawn) [Example 11, 4-(2,3,4-trimethoxybenzyl)-l-[3-(4-hydroxy-2,3,5-trimethylphenoxy)-2-hydroxypropyl]piperazine]",–,0.6,18 ± 2.9,70.9 ± 8.3,114 ± 5.2,–,–,–,–,–,–,–,–
"COc1ccc(CN2CCN(CC(C)(C)CSc3cc(C(C)(C)C)c(O)c(C(C)(C)C)c3)CC2)c(OC)c1OC [Example 12, 4-(2,3,4-trimethoxybenzyl)-l-[3-(4-hydroxy-3,5-di-tert.-butylphenylthio)-2,2-dimethylpropyl]piperazine]",–,0.8,–,–,–,–,–,–,–,–,–,–,–
"COc1ccc(CN2CCN(CC(O)CSc3cc(C)c(O)c(C)c3C)CC2)c(OC)c1OC (stereo not drawn) [Example 13, 4-(2,3,4-trimethoxybenzyl)-l-[3-(4-hydroxy-2,3,5-trimethylphenylthio)-2-hydroxypropyl)piperazine]",4.3,0.07,15.1 ± 0.6,64.7 ± 0.4,100 ± 4.8,–,more than 70%,more than 70%,11.0 ± 4.4,15.0 ± 6.1,13.5 ± 6.3,6.0 ± 6.0,3.5 ± 3.5

# Continued, in another order:
IC50 [2] [µM],IC50 [3] [µM],Compound,activity at 10 µM [1] [%],activity at 1 µM [1] [%],activity at 0.1 µM [1] [%],minimal effective concentration [1] [µM],functional recovery of the hearts during reoxygenation [4],reduction of the developing contracture at the end of 30 minutes reoxygenation [4],"Contracture, hypoxia 10 min [4] [mm Hg]","Contracture, hypoxia 30 min [4] [mm Hg]","Contracture, hypoxia 60 min [4] [mm Hg]","Contracture, reoxygenation 15 min [4] [mm Hg]","Contracture, reoxygenation 30 min [4] [mm Hg]"
–,3,"COc1ccc(CN2CCN(CCC(C)(C)Sc3cc(C(C)(C)C)c(O)c(C(C)(C)C)c3)CC2)c(OC)c1OC [Example 2, 4-(2,3,4-trimethoxybenzyl)-1-[3-(4-hydroxy-3,5-di-tert.-butylphenylthio)-3,3-dimethylpropyl]piperazine]",–,–,–,–,–,–,–,–,–,–,–
–,0.5,"COc1ccc(CN2CCN(CCCOc3cc(C(C)(C)C)c(O)c(C(C)(C)C)c3)CC2)c(OC)c1OC [Example 3, 4-(2,3,4-trimethoxybenzyl)-l-[3-(4-hydroxy-3,5-di-tert.-butylphenoxy)propyl]piperazine]",37.6 ± 2.7,16.9 ± 1.1,72.6 ± 5.7,≥ 0.1,–,–,–,–,–,–,–
–,2,"COc1ccc(CN2CCN(CCCc3cc(C(C)(C)C)c(O)c(C(C)(C)C)c3)CC2)c(OC)c1OC [Example 4, 4-(2,3,4-trimethoxybenzyl)-l-[3-(4-hydroxy-3,5-di-tert.-butylphenyl)propyl]piperazine]",10.2 ± 3.1,22.3 ± 6.5,103 ± 12,–,–,–,–,–,–,–,–
–,0.9,"COc1ccc(CN2CCN(CC(O)COc3cc(C(C)(C)C)c(O)c(C(C)(C)C)c3)CC2)c(OC)c1OC (stereo not drawn) [Example 5, 4-(2,3,4-trimethoxybenzyl)-l-[3-(4-hydroxy-3,5-di-tert.-butylphenoxy)-2-hydroxypropyl]piperazine]",–,–,–,–,–,–,–,–,–,–,–
2.7,0.3,"COc1ccc(CN2CCN(CC(O)CSc3cc(C(C)(C)C)c(O)c(C(C)(C)C)c3)CC2)c(OC)c1OC (centres unmarked) [Example 6, 4-(2,3,4-trimethoxybenzyl)-I-[3-(4-hydroxy-3,5-di-tert.-butylphenylthio)-2-hydroxypropyl]piperazine]",8.3 ± 1.4,7.7 ± 0.1,99.5 ± 7.5,–,–,–,–,–,–,–,–
–,0.6,"COc1ccc(CN2CCN(CCCSc3cc(C(C)(C)C)c(O)c(C(C)(C)C)c3)CC2)c(OC)c1OC [Example 7, 4-(2,3,4-trimethoxybenzyl)-I-[3-(4-hydroxy-3,5-di-tert.-butylphenylthio)propyl]piperazine]",27.9 ± 3.4,19.3 ± 0.9,85.9 ± 1.7,–,–,–,–,–,–,–,–
–,1,"COc1ccc(CN2CCN(CCCCCOc3cc(C(C)(C)C)c(O)c(C(C)(C)C)c3)CC2)c(OC)c1OC [Example 8, 4-(2,3,4-trimethoxybenzyl)-l-[5-(4-hydroxy-3,5-di-tert.-butylphenoxy)pentyl]piperazine]",27.2 ± 2,21.6 ± 4.2,91.4 ± 3.1,–,–,–,–,–,–,–,–
